{
  "source": "ChEMBL document CHEMBL1201862",
  "about": "“PubChem BioAssay data set” (2004)",
  "key": {"[1]": {"target": "T1, Heat shock factor protein 1 (Mus musculus, UniProt P38532)", "T1 sequence (P38532 whole entry)": "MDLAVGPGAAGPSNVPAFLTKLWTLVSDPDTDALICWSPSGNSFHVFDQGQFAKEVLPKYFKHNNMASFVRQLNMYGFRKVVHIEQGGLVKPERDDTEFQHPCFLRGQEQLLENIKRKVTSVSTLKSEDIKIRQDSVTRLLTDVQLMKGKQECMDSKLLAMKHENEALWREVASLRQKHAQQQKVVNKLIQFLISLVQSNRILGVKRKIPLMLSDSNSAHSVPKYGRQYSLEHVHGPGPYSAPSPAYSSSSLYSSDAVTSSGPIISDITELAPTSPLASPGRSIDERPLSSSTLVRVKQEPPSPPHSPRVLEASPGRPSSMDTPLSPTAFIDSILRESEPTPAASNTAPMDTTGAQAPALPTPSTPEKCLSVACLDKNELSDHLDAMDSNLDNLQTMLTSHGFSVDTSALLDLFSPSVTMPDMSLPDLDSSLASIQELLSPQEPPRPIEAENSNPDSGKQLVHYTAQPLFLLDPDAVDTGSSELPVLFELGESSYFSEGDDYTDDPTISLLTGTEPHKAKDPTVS", "test": "decrease of HSF1-responsive luciferase luminescence – cell-based, NIH3T3, dose retest, confirmation (AID 2382);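 further: NIH3T3 fibroblasts with HSF1-driven luciferase reporter stressed by proteasome inhibitor MG132; luminescence from HSF1-driven luciferase expression after 8 hours of MG132 stress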", "format": "functional"}, "[2]": {"target": "Photoreceptor-specific nuclear receptor (Homo sapiens, UniProt Q9Y5X4)", "sequence (Q9Y5X4 whole entry)": "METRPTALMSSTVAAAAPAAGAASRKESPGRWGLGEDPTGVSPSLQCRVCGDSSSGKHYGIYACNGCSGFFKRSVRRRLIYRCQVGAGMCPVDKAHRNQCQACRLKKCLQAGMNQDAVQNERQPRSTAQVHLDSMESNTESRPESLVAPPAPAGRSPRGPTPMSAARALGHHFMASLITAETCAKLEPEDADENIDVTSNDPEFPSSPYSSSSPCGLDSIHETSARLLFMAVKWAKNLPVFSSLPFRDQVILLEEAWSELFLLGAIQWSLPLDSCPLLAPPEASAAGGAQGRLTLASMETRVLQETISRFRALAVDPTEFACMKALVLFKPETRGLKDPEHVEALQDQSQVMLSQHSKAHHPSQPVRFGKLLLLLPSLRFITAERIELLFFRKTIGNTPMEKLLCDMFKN", "format": "functional, cell-based"}, "[3]": {"test": "activation of miR-122 Renilla sensor silencing – cell-based, Huh7 psiCHECK-miR122, Renilla luciferase, cherry-picked, dose response (AID 651956);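 further: huh7 hepatoma cells stably carrying a psiCHECK-2 miR-122 sensor plasmid; renilla luciferase signal reporting endogenous miR-122 activity after 48 h compound exposure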", "format": "functional"}, "[4]": {"target": "T2, Nuclear receptor subfamily 0 group B member 1 (Homo sapiens, UniProt P51843)", "T2 sequence (P51843 whole entry)": "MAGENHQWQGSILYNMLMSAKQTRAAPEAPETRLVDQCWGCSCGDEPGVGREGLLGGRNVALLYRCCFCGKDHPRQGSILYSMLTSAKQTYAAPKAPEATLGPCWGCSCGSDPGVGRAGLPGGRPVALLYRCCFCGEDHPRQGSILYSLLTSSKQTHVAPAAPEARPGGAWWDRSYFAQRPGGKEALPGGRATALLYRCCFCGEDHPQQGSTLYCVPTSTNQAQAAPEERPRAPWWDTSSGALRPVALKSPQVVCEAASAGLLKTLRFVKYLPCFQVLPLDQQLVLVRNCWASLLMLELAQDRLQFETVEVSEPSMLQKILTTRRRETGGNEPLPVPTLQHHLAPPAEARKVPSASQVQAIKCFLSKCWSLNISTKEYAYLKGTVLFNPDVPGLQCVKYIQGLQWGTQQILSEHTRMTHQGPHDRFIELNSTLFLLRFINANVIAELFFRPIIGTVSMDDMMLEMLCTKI", "format": "functional, cell-based"}, "[5]": {"target": "T3, Protein skinhead-1 (Caenorhabditis elegans, UniProt P34707)", "T3 sequence (P34707 whole entry)": "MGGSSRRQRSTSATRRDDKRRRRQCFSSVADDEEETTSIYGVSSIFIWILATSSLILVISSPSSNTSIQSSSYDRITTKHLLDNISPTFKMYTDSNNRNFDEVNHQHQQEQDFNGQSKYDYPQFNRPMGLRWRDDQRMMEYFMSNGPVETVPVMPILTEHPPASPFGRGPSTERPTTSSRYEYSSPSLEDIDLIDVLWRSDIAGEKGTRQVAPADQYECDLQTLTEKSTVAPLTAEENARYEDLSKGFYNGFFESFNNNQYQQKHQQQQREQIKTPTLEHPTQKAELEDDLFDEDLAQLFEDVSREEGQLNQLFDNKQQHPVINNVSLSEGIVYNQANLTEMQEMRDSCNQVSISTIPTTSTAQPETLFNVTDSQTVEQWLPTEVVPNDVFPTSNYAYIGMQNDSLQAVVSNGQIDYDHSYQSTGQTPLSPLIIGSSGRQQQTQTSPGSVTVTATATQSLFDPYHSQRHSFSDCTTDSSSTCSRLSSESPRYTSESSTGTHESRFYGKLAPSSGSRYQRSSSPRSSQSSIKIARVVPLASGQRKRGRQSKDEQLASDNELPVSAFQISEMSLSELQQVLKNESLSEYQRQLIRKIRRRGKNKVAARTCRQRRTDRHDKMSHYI", "format": "functional"}, "[6]": {"test": "cells", "format": "functional, cell-based"}, "[7]": {"test": "blockers of bursicon-stimulated LGR2 cAMP reporter – cell-based, HEK293, CRE-luciferase reporter, cherry pick, set 2, dose response (AID 743343);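 further: transfected cells were stimulated with diluted bursicon conditioned medium after compound addition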", "format": "functional"}, "[8]": {"test_system": "HEK293", "test": "cells", "format": "functional, cell-based", "settings": "Homo sapiens"}, "[9]": {"test_system": "HEK293", "test": "inhibition of NOD1-driven NF-kB reporter – cell-based, luminescence, uHTS, primary screen (AID 1578)", "format": "functional", "settings": "Homo sapiens"}, "[10]": {"test_system": "HEK293", "test": "NOD2 signaling inhibitors in MDP-stimulated cells, cell-based, uHTS, luminescence (AID 2001)", "format": "functional", "settings": "Homo sapiens"}, "[11]": {"test": "A549 cell cytotoxicity, dose response, cytotoxicity control, plate reader, cherry-pick, antagonist series (AID 743412)", "format": "functional, cell-based"}, "[12]": {"test_system": "HEK293", "test": "cells", "format": "functional, cell-based", "settings": "Homo sapiens", "remark": "listed apart in the source"}, "[13]": {"test_system": "HEK293", "test": "cells", "format": "functional, cell-based", "settings": "Homo sapiens", "remark": "listed apart in the source"}, "[14]": {"test": "blockade of melanocortin 4 receptor signaling – cell-based, plate reader, cherry pick, counter-screen for LGR2 antagonist project, dose response (AID 743444);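 further: transfected HEK 293 cells stimulated with alpha-MSH peptide; potency of inhibitors of the alpha-MSH evoked signal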", "format": "functional"}, "[15]": {"target": "Nucleotide-binding oligomerization domain-containing protein 2 (Homo sapiens, UniProt Q9HC29)", "sequence (Q9HC29 whole entry, the tested form may be a part)": "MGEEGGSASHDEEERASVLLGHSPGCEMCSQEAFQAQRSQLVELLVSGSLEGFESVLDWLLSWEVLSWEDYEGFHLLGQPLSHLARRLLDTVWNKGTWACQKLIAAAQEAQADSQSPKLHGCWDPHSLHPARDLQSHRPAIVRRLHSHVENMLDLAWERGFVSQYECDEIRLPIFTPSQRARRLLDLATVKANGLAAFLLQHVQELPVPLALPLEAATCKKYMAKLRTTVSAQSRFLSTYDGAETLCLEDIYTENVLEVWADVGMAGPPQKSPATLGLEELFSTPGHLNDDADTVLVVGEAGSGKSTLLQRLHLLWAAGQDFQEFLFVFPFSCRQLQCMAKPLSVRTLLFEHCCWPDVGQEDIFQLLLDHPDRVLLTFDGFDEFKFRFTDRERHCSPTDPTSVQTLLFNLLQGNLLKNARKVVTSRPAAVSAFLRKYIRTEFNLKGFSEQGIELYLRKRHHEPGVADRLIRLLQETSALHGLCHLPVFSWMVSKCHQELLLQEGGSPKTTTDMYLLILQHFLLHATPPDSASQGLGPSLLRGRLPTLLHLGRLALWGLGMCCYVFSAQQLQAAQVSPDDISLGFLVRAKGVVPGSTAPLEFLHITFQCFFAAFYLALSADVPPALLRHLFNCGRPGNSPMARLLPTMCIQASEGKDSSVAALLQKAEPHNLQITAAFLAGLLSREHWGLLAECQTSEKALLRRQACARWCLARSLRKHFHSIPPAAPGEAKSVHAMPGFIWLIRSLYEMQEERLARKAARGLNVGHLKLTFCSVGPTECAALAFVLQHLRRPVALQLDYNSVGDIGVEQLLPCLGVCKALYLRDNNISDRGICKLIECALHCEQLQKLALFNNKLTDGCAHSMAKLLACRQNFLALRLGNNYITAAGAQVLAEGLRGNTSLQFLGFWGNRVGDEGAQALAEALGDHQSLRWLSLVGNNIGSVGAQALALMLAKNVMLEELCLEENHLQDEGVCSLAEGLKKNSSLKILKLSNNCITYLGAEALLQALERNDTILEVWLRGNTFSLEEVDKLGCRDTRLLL", "test": "inhibition of NOD2-driven NF-kB reporter – cell-based, luminescence, uHTS, HEK293 (AID 1566)", "format": "functional"}, "[16]": {"target": "T4, Low molecular weight phosphotyrosine protein phosphatase (Homo sapiens, UniProt P24666)", "T4 sequence (P24666 whole entry)": "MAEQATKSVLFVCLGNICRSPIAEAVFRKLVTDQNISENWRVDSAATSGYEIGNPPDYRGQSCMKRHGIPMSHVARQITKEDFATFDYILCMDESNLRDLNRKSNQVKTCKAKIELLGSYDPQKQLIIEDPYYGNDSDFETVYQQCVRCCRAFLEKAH", "format": "functional", "settings": "read-out: IC50_Mean"}, "[17]": {"target": "T4, Low molecular weight phosphotyrosine protein phosphatase", "format": "functional", "settings": "read-out: IC50_Mean", "remark": "listed apart in the source"}, "[18]": {"test": "HIV-1 AD8 envelope cell-cell fusion blockers – cherry-pick, dose response (AID 652062);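 further: potency is for inhibitors of fusion seen as a drop in luminescence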", "format": "functional, cell-based"}, "[19]": {"test": "cells"}, "[20]": {"test": "viability of uninfected HEp-2 cells – cell-based, HTS, cytotoxicity control for RSV inhibitor project, dose response (AID 2410)", "format": "functional", "settings": "human respiratory syncytial virus"}, "[21]": {"test": "off-target signal loss in HeLa-CEM21 co-culture – HeLa F-luc CTL cells, cherry-picked, counter-screen for HIV-1 Env fusion inhibitor project, dose response (AID 652040);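 further: potency for signal decrease marking cytotoxic or nonspecific inhibition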", "format": "functional, cell-based"}, "[22]": {"test": "blockers of HIV-1 ZM109 envelope-driven cell-cell fusion – HeLa effector, CEM target cells, luciferase, cherry-pick, dose response (AID 652058)", "format": "functional, cell-based"}, "[23]": {"test": "blockers of HIV-1 envelope-mediated cell-cell fusion – cherry-pick, dose response (AID 652057)", "format": "functional, cell-based"}},
  "note": "Active and inactive are the calls of the source.",
  "data": [
    {"smiles": "CCOC(=O)Cc1nnc2c(Nc3ccccc3F)nc3nonc3n12", "values": [
      {"measurement": "EC50", "setting": "[1]", "value": "> 195 µM (not active)"},
      {"measurement": "IC50", "setting": "[2]", "value": "3.87 µM (active)"}
    ]},
    {"smiles": "COCC(=O)N(C)C[C@H]1[C@H](c2ccccc2)[C@@H](CO)N1C(=O)NC(C)C", "values": [
      {"measurement": "AC50", "setting": "[3]", "value": "50.3 µM (active)"}
    ]},
    {"smiles": "O=C(/C(=C/Nc1ccc(Br)cc1)C(=O)C(F)(F)F)c1ccco1", "values": [
      {"measurement": "IC50", "setting": "[4]", "value": "> 67.5 µM (inactive)"},
      {"measurement": "IC50", "setting": "[5]", "value": "27.2 µM (active)"},
      {"measurement": "IC50", "setting": "[6]", "value": "> 67.5 µM (inactive)"}
    ]},
    {"smiles": "COc1ccc(-n2ncc3c(N(C)C4CCCCC4)ncnc32)cc1", "values": [
      {"measurement": "AC50", "setting": "[7]", "value": "0.246 µM (active)"},
      {"measurement": "IC50", "setting": "[8]", "value": "> 20 µM (inactive)"},
      {"measurement": "EC50", "setting": "[9]", "value": "7.56 µM (active)"},
      {"measurement": "IC50", "setting": "[10]", "value": "10.7 µM (inactive)"},
      {"measurement": "AC50", "setting": "[11]", "value": "> 52 µM (inactive)"},
      {"measurement": "IC50", "setting": "[12]", "value": "> 20 µM (inactive)"},
      {"measurement": "IC50", "setting": "[13]", "value": "8.11 µM (active)"},
      {"measurement": "AC50", "setting": "[14]", "value": "0.578 µM (active)"},
      {"measurement": "EC50", "setting": "[15]", "value": "< 0.31 µM (inactive)"}
    ]},
    {"smiles": "CCCCCn1c(N)c(-c2nc3ccccc3o2)c2c([N+](=O)[O-])nn(CC)c(=O)c21", "values": [
      {"measurement": "IC50", "setting": "[16]", "value": "8.25 µM (active)"},
      {"measurement": "IC50", "setting": "[17]", "value": "5.88 µM (active)"}
    ]},
    {"smiles": "O=C(NCc1ccco1)c1ccc(Cn2c(=O)c3sccc3n(Cc3ccc(F)cc3)c2=O)cc1", "values": [
      {"measurement": "AC50", "setting": "[18]", "value": "0.665 µM (active)"},
      {"measurement": "IC50", "setting": "[19]", "value": "4.76 µM (active)"},
      {"measurement": "CC50", "setting": "[20]", "value": "44.8 µM (active)"},
      {"measurement": "AC50", "setting": "[21]", "value": "< 0.26 µM (active)"},
      {"measurement": "AC50", "setting": "[22]", "value": "0.349 µM (active)"},
      {"measurement": "AC50", "setting": "[23]", "value": "< 0.26 µM (active)"}
    ]},
    {"smiles": "C=C1CCN([C@@H](Cc2ccccc2)C(=O)Nc2ccc(OC)cc2)S(=O)(=O)c2ccccc21", "values": [
      {"measurement": "AC50", "setting": "[18]", "value": "2.03 µM (active)"},
      {"measurement": "AC50", "setting": "[21]", "value": "1.31 µM (active)"},
      {"measurement": "AC50", "setting": "[22]", "value": "0.848 µM (active)"},
      {"measurement": "AC50", "setting": "[23]", "value": "0.923 µM (active)"}
    ]}
  ]
}
